Reference: publication PMC12550276 (Life Science Alliance, 2025)

Assays:
GBAv = target: T1, GBAv (Amydetes, UniProt A0A3F2YLV6, R337L); assay: HDX-MS, apo vs ligand-bound; type: binding; conditions: 5 mM ATP together with 5 mM luciferin (not separable), 50 mM MgCl2, pD 7.5, 25°C
T1 construct: N-terminal His6-tag kept (no cleavage told), pET28b, E. coli BL21-CodonPlus-RIL; ~550 residues; monomer by SEC

REPh = target: T2, REPh (Phrixothrix hirtus, UniProt Q9U4U7, L334R); assay: HDX-MS, apo vs ligand-bound; type: binding; conditions: 5 mM ATP together with 5 mM luciferin (not separable), 50 mM MgCl2, pD 7.5, 25°C
T2 construct: N-terminal His6-tag kept (no cleavage told), pET28b, E. coli BL21-CodonPlus-RIL; ~550 residues; higher oligomer by SEC (octamer in crystal)
T2 sequence (Q9U4U7 1-546 L334R): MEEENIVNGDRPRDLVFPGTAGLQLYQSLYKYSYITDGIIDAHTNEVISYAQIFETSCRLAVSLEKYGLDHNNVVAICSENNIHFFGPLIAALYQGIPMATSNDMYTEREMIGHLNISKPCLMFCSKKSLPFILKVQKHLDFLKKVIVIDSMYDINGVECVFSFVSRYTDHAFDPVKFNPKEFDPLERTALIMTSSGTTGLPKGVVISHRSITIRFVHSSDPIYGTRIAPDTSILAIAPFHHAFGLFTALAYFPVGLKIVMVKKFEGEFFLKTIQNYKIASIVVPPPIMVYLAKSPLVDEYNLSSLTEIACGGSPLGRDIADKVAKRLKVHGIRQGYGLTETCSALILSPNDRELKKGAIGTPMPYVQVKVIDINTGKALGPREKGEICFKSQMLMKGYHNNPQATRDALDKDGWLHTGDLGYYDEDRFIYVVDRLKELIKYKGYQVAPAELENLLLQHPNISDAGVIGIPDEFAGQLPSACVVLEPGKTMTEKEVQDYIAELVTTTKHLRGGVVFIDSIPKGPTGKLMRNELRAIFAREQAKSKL

T1 sequence (A0A3F2YLV6 entry or part of it R337L): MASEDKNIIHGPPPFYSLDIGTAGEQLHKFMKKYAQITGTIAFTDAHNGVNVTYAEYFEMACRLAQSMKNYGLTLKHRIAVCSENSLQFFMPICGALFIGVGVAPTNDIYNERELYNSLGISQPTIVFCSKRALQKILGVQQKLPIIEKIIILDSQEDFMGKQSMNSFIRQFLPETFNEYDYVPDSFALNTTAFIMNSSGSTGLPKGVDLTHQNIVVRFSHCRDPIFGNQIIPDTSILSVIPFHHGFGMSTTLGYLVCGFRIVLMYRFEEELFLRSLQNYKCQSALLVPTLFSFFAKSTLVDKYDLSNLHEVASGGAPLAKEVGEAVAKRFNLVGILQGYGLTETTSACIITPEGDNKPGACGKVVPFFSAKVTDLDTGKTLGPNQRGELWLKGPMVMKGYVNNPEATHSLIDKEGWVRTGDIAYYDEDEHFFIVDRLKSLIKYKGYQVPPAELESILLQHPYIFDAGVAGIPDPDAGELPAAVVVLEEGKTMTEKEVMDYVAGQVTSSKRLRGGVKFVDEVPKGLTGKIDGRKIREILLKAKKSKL

Structure (SMILES): Nc1ncnc2c1ncn2[C@@H]1O[C@H](COP(=O)(O)OP(=O)(O)OP(=O)(O)O)[C@@H](O)[C@H]1O [ATP]
- HDX-MS, apo vs ligand-bound (GBAv): Upon substrate binding, deuterium uptake by peptides-2 and -3 decreased in all variants
- HDX-MS, apo vs ligand-bound (REPh): Upon substrate binding, deuterium uptake by peptides-2 and -3 decreased in all variants
